Assay results: the supplement of paper PMC10883282

Legend:
Assay in all cases: relative viability vs DMSO control (72 h) (fraction); higher = more viable cells
SYO-1 = test system: SYO-1
Method in brief: (§1)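 ATPLite readings, expressed as percent growth and averaged over up to triplicate wells, provided relative viability. Before reading, sarcoma cell lines seeded in 384-well plates to reach 80–90% confluence received 2.5 µl of serially diluted compound after 24 h, from source plates of 10 mM to 0.0002 mM. Plates were held 72 h at 37 °C, 5% CO2, with 0.1% DMSO as vehicle and a 5 µM positive control. The data were rescaled to 1 for full and 0 for none.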

A204 = test system: A204
Method in brief: as §1

SW982 = test system: SW982
Method in brief: as §1

HS729 = test system: HS729
Method in brief: as §1

KHOS-240S = test system: KHOS-240S
Method in brief: as §1

CNC(=O)c1c(C)oc2cc(Oc3ncnc4cc(OC)c(OC)cc34)ccc12 [Fruquintinib]
relative viability
Details	A204	HS729	KHOS-240S	SW982	SYO-1
0.00017 µM	1.06	1.09	1.06	1.03	1.01
0.00051 µM	1.09	1	1.07	1.03	1.034
0.00152 µM	1.05	0.959	1.08	1.04	0.971
0.00457 µM	1.05	0.961	1.07	1.02	0.963
0.01372 µM	1.06	0.908	1.07	1.03	0.921
0.04115 µM	0.999	0.927	1.08	1.04	0.918
0.1235 µM	0.967	0.896	1.03	1.048	0.817
0.3704 µM	0.73	0.852	0.987	1.04	0.651
1.111 µM	0.409	0.794	0.9394	1.04	0.498
3.333 µM	0.32	0.717	0.8	0.992	0.417
10 µM	0.258	0.657	0.755	0.925	0.402

COc1cc2ncnc(Nc3ccc(F)c(Cl)c3)c2cc1OCCCN1CCOCC1 [Gefitinib]
relative viability
Details	A204	HS729	KHOS-240S	SW982	SYO-1
0.00017 µM	1.06	0.9733	1.01	0.997	1.01
0.00051 µM	1.08	0.97	1.05	1.01	1.02
0.00152 µM	1.09	1.03	1.01	1.01	0.999
0.00457 µM	1.06	0.947	1.05	1	0.998
0.01372 µM	1.05	1.01	1.03	1	0.999
0.04115 µM	1.1	1.03	1.04	1.012	0.9815
0.1235 µM	1.1	1	1	0.998	1
0.3704 µM	1.03	1.01	1.03	0.989	0.983
1.111 µM	1.04	0.958	1.01	0.957	0.955
3.333 µM	0.876	0.853	0.921	0.675	0.829
10 µM	0.448	0.621	0.318	0.268	0.104

CCc1nc(C(N)=O)c(Nc2ccc(N3CCC(N4CCN(C)CC4)CC3)c(OC)c2)nc1NC1CCOCC1 [Gilteritinib]
relative viability
Details	A204	HS729	KHOS-240S	SW982	SYO-1
60 pM	1.05	0.9885	1.08	0.9618	0.959
0.00018 µM	1.01	0.928	1.06	0.996	0.921
0.00053 µM	1.04	0.924	1.08	0.978	0.915
0.0016 µM	1.04	0.875	1.04	0.967	0.848
0.0048 µM	1.02	0.828	1.08	0.988	0.815
0.014 µM	1.02	0.797	1.02	0.947	0.791
0.043 µM	1.03	0.74	0.985	0.945	0.734
0.13 µM	0.943	0.63	0.913	0.612	0.637
0.389 µM	0.742	0.47	0.848	0.277	0.481
1.167 µM	0.502	0.357	0.509	0.195	0.389
3.5 µM	0.385	0.322	0.398	0.2	0.369

O=S(=O)(c1cccc2c(O)nccc12)N1CCCNCC1 [Hydroxyfasudil]
relative viability
Details	A204	HS729	KHOS-240S	SW982	SYO-1
0.00017 µM	1.08	1.087	1.1	1.02	1
0.00051 µM	1.1	0.998	1.1	1.05	0.996
0.00152 µM	1.12	1.05	1.1	1.05	0.97
0.00457 µM	1.1	1.004	1.11	1.081	0.993
0.01372 µM	1.11	0.967	1.1	1.05	0.96
0.04115 µM	1.11	0.969	1.1	1.06	0.96
0.1235 µM	1.11	0.97	1.11	1.073	0.983
0.3704 µM	1.06	0.962	1.1	1.06	0.894
1.111 µM	1.04	0.95	1.04	1.04	0.919
3.333 µM	1.05	0.887	0.998	1.041	0.904
10 µM	0.979	0.853	0.906	0.92	0.846

C#Cc1cccc(Nc2ncnc3cc4c(cc23)OCCOCCOCCO4)c1 [Icotinib]
relative viability
Details	A204	HS729	KHOS-240S	SW982	SYO-1
0.00017 µM	1.07	1.08	1.07	1.01	1.01
0.00051 µM	1.08	1.091	1.1	1.03	1.03
0.00152 µM	1.11	1.01	1.1	1.04	1.01
0.00457 µM	1.13	1	1.1	1.03	0.968
0.01372 µM	1.071	0.99	1.1	1.049	0.989
0.04115 µM	1.12	0.99	1.09	1.06	0.979
0.1235 µM	1.09	0.97	1.1	1.06	0.982
0.3704 µM	1.07	0.971	1.09	1.05	0.98
1.111 µM	0.967	0.957	1.09	0.999	0.966
3.333 µM	0.947	0.892	1.04	0.9946	0.892
10 µM	0.877	0.8227	1.03	0.977	0.855
